We go through 20 molecules from patent US20160264536A1, “HETEROCYCLIC COMPOUND” (Takeda Pharmaceutical Company Limited, priority 2013, published 2016).

In the assay the target is T1, human PDE2A3 enzyme (Homo sapiens, UniProt O00408).
T1 construct: Human PDE2A3 full-length gene was transduced into Sf9; His-tag; made in house; host or cells: Sf9 insect cells
T1 sequence (O00408 whole entry): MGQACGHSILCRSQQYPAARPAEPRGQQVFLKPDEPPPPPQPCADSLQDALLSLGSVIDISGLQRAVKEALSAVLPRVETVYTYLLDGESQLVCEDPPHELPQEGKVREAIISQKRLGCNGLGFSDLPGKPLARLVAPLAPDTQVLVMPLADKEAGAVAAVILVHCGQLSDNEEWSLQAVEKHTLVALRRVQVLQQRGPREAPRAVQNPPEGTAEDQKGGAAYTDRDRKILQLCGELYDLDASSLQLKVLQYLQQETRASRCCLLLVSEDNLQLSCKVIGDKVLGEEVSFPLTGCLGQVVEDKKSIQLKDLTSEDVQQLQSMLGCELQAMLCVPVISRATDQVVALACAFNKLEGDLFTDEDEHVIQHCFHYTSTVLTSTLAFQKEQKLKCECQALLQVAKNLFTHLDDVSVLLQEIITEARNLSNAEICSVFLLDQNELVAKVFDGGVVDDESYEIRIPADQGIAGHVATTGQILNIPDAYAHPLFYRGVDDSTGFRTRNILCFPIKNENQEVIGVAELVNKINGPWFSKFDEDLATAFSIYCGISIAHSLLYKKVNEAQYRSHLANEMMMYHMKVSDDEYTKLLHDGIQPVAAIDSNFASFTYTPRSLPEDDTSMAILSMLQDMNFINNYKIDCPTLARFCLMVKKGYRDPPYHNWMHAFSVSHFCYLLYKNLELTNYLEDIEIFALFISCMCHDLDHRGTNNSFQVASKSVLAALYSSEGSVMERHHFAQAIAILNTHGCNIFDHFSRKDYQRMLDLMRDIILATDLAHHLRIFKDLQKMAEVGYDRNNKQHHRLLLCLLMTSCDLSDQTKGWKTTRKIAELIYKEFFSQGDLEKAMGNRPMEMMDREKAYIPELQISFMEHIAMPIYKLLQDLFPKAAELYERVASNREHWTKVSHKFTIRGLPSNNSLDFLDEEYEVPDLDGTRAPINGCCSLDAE
Briefly: PDE enzyme inhibitory assay (SPA, [3H]cGMP substrate). Type of assay: biochemical. Conditions: compound 1 μM, substrate [3H]cGMP 77 nM, read-out: inhibitory rate (%) (1 μM). The protocol: PDE Enzyme Inhibitory Assay
Human PDE2A3 full-length gene was transduced into Sf9, and human PDE2A3 enzyme was purified by His-tag affinity column and gel filtration. The enzyme was stored at −70° C. until use. PDE activity was measured by using a SPA (Scintillation Proximity Assay) (GE Healthcare). To evaluate the inhibitory activity of the compound, 10 μl of serial diluted compounds were reacted with 20 μl of PDE enzyme in assay buffer (50 mM HEPES-NaOH, 8.3 mM MgCl2, 1.7 mM EGTA, 0.1% BSA (pH 7.4)) for 30 min at room temperature. Final concentration of DMSO in the reaction solution was 1%. Compounds were tested in duplicate in 96-well half-area plates (Corning) or 384-well OptiPlate (PerkinElmer). To start the reaction, 10 μl of substrate [^3H]cGMP (final concentration 77 nM, PerkinElmer) was added to a total volume of 40 μl. After reaction for 60 min at room temperature, 20 μl of 20 mg/mL yttrium SPA beads containing zinc sulfate was added to terminate the reaction. After being settled for further 1 hour, the assay plates were counted in a scintillation counter (PerkinElmer) to allow calculation of inhibition rate. Inhibition rate was calculated on the basis of 0% control wells with enzyme and DMSO, and 100% control wells without enzyme.
`CC#Cc1nc(C(=O)N[C@H](COC)c2ccc(OC(F)(F)F)c(F)c2)cc(=O)[nH]1` [Example 111, N-((1S)-1-(3-fluoro-4-(trifluoromethoxy)phenyl)-2-methoxyethyl)-6-oxo-2-(prop-1-yn-1-yl)-1,6-dihydropyrimidine-4-carboxamide]: the inhibition at 1 µM stood at 94%.
Take `CC(C)(O)[C@@H](NC(=O)c1cc(=O)[nH]c(C2=CCCC2)n1)c1ccc(OC(F)(F)F)c(F)c1` [Example 114, 2-(cyclopent-1-en-1-yl)-N-((1S)-1-(3-fluoro-4-(trifluoromethoxy)phenyl)-2-hydroxy-2-methylpropyl)-6-oxo-1,6-dihydropyrimidine-4-carboxamide]: the inhibition at 1 µM turned out to be 104%.
On to `COC[C@@H](NC(=O)c1cc(=O)[nH]c(C2=CCCC2)n1)c1ccc(OC(F)(F)F)cc1` [Example 115, 2-(cyclopent-1-en-1-yl)-N-((1S)-2-methoxy-1-(4-(trifluoromethoxy)phenyl)ethyl)-6-oxo-1,6-dihydropyrimidine-4-carboxamide], for which the inhibition at 1 µM was 100%.
Turning to `COCC(NC(=O)c1cc(=O)[nH]c(-c2ccccn2)n1)c1ccc(-n2cccc2)c(F)c1` (centres unmarked) [Example 116, N-(1-(3-fluoro-4-(1H-pyrrol-1-yl)phenyl)-2-methoxyethyl)-6-oxo-2-(pyridin-2-yl)-1,6-dihydropyrimidine-4-carboxamide], the inhibition at 1 µM worked out at 99%.
Take `COC[C@@H](NC(=O)c1cc(=O)[nH]c(-c2ccsc2)n1)c1ccc(OC(F)(F)F)c(F)c1` [Example 120, N-((1S)-1-(3-fluoro-4-(trifluoromethoxy)phenyl)-2-methoxyethyl)-6-oxo-2-(3-thienyl)-1,6-dihydropyrimidine-4-carboxamide]: the inhibition at 1 µM turned out to be 103%.
Then `COC[C@@H](NC(=O)c1cc(=O)[nH]c(-c2ccco2)n1)c1ccc(OC(F)(F)F)c(F)c1` [Example 121, N-((1S)-1-(3-fluoro-4-(trifluoromethoxy)phenyl)-2-methoxyethyl)-2-(2-furyl)-6-oxo-1,6-dihydropyrimidine-4-carboxamide], with 95%; and `COC[C@@H](NC(=O)c1cc(=O)[nH]c(-c2ccoc2)n1)c1ccc(OC(F)(F)F)c(F)c1` [Example 122, N-((1S)-1-(3-fluoro-4-(trifluoromethoxy)phenyl)-2-methoxyethyl)-2-(3-furyl)-6-oxo-1,6-dihydropyrimidine-4-carboxamide], with 102%.
As for `COCC(NC(=O)c1cc(=O)[nH]c(C2=CCCC2)n1)c1ccc(-n2cccn2)c(F)c1` (centres unmarked) [Example 129, 2-(cyclopent-1-en-1-yl)-N-(1-(3-fluoro-4-(1H-pyrazol-1-yl)phenyl)-2-methoxyethyl)-6-oxo-1,6-dihydropyrimidine-4-carboxamide], the inhibition at 1 µM stood at 98%.
Consider `COC[C@@H](NC(=O)c1cc(=O)[nH]c(-c2ncc(OC)cc2OC)n1)c1ccc(OC(F)(F)F)c(F)c1` [Example 152, 2-(3,5-dimethoxypyridin-2-yl)-N-((1S)-1-(3-fluoro-4-(trifluoromethoxy)phenyl)-2-methoxyethyl)-6-oxo-1,6-dihydropyrimidine-4-carboxamide], for which the inhibition at 1 µM was 96%.
Regarding `COC[C@@H](NC(=O)c1cc(=O)[nH]c(C2(C)CC2)n1)c1ccc(OC(F)(F)F)cc1` [Example 153, N-((1S)-2-methoxy-1-(4-(trifluoromethoxy)phenyl)ethyl)-2-(1-methylcyclopropyl)-6-oxo-1,6-dihydropyrimidine-4-carboxamide], the inhibition at 1 µM is 100%.
The figure for `Cn1cc(-c2cncc(C(=O)N[C@@H](c3ccc(OC(F)(F)F)c(F)c3)C(C)(C)O)n2)cn1` [Example 158, N-((1S)-1-(3-fluoro-4-(trifluoromethoxy)phenyl)-2-hydroxy-2-methylpropyl)-6-(1-methyl-1H-pyrazol-4-yl)pyrazine-2-carboxamide] is 97%.
For the molecule `CO[C@H]1CCN(c2cncc(C(=O)N[C@@H](c3ccc(OC(F)(F)F)c(F)c3)C(C)(C)O)n2)C1` [Example 163, N-((1S)-1-(3-fluoro-4-(trifluoromethoxy)phenyl)-2-hydroxy-2-methylpropyl)-6-((3S)-3-methoxypyrrolidin-1-yl)pyrazine-2-carboxamide], the inhibition at 1 µM stood at 94%.
Then `COC[C@@H](NC(=O)c1cc(=O)[nH]c(C2=CCC(OC)C2)n1)c1ccc(OC(F)(F)F)c(F)c1` (stereo partly drawn) [Example 171, N-((1S)-1-(3-fluoro-4-(trifluoromethoxy)phenyl)-2-methoxyethyl)-2-(4-methoxycyclopent-1-en-1-yl)-6-oxo-1,6-dihydropyrimidine-4-carboxamide], with 103%; and `COC[C@@H](NC(=O)c1cc(=O)[nH]c(-c2ncc(OC)cc2F)n1)c1ccc(OC(F)(F)F)c(F)c1` [Example 178, 2-(3-fluoro-5-methoxypyridin-2-yl)-N-((1S)-1-(3-fluoro-4-(trifluoromethoxy)phenyl)-2-methoxyethyl)-6-oxo-1,6-dihydropyrimidine-4-carboxamide], with 99%.
For the molecule `COC[C@@H](NC(=O)c1cc(=O)[nH]c(-c2ncc(OC)cc2C)n1)c1ccc(OC(F)(F)F)c(F)c1` [Example 179, N-((1S)-1-(3-fluoro-4-(trifluoromethoxy)phenyl)-2-methoxyethyl)-2-(5-methoxy-3-methylpyridin-2-yl)-6-oxo-1,6-dihydropyrimidine-4-carboxamide], the inhibition at 1 µM is 94%.
For `COC[C@@H](NC(=O)c1cc(=O)[nH]c(-c2ncc(OC)cc2Cl)n1)c1ccc(OC(F)(F)F)c(F)c1` [Example 184, 2-(3-chloro-5-methoxypyridin-2-yl)-N-((1S)-1-(3-fluoro-4-(trifluoromethoxy)phenyl)-2-methoxyethyl)-6-oxo-1,6-dihydropyrimidine-4-carboxamide], the inhibition at 1 µM was 95%.
The figure for `COC[C@@H](NC(=O)c1cc(=O)[nH]c(-c2ncc(C3CC3)cc2F)n1)c1ccc(OC(F)(F)F)c(F)c1` [Example 185, 2-(5-cyclopropyl-3-fluoropyridin-2-yl)-N-((1S)-1-(3-fluoro-4-(trifluoro-methoxy)phenyl)-2-methoxyethyl)-6-oxo-1,6-dihydropyrimidine-4-carboxamide] is 94%; for `COC[C@@H](NC(=O)c1cc(=O)[nH]c(-c2ncc(OC(F)F)cc2F)n1)c1ccc(OC(F)(F)F)c(F)c1` [Example 186, 2-(5-(difluoromethoxy)-3-fluoropyridin-2-yl)-N-((1S)-1-(3-fluoro-4-(trifluoro-methoxy)phenyl)-2-methoxyethyl)-6-oxo-1,6-dihydropyrimidine-4-carboxamide] it is 92%.
The figure for `CCOc1cnc(-c2nc(C(=O)N[C@H](COC)c3ccc(OC(F)(F)F)c(F)c3)cc(=O)[nH]2)c(OCC)c1` [Example 187, 2-(3,5-diethoxypyridin-2-yl)-N-((1S)-1-(3-fluoro-4-(trifluoromethoxy)phenyl)-2-methoxyethyl)-6-oxo-1,6-dihydropyrimidine-4-carboxamide] is 105%; for `COC[C@@H](NC(=O)c1cc(=O)[nH]c(-c2ncc(C3CC3)cc2OC)n1)c1ccc(OC(F)(F)F)c(F)c1` [Example 189, 2-(5-cyclopropyl-3-methoxypyridin-2-yl)-N-((1S)-1-(3-fluoro-4-(trifluoro-methoxy)phenyl)-2-methoxyethyl)-6-oxo-1,6-dihydropyrimidine-4-carboxamide] it is 99%.
